Reference: patent US10648917B2, “Luminescent compositions and applications thereof” (THE PENN STATE RESEARCH FOUNDATION, priority 2015, dated 2020)

What was measured:
[1] = pH dependence of fluorescence / pH sensing; assay type: physicochemical
Protocol: (§1) Absorbance Spectra were recorded on Tecan Infinite M200 Pro UV-vis spectroscopy, and fluorescence spectra were recorded on Horiba FluoroMax-4 fluorospectroscopy at concentrations below 0.1 O.D. unless otherwise indicated. Quantum Yields were measured on the Quantum φ Integrating Sphere accessory to the FluoroMax-4, while lifetime measurements were determined through the Time-Correlation Single Photon Counting (TCSPC) accessory to the FluroMax-4. TCSPC was utilized in conjunction with NanoLED pulsed diode light source with peak excitation wavelength at 352 nm and at 10,000 counts peak preset. Emission was collected at the fluorescence λmax, unless otherwise indicated. For all pH-dependence experiments, sample pH was adjusted with sulfuric acid or sodium hydroxide. For all chloride-dependent quenching experiments, magnesium chloride hexahydrate (Sigma Aldrich) was used.
pH Dependence of CA-Cys Fluorescence. Of all solvent and environmental factors that affect fluorescence, CA-Cys appeared to display the greatest sensitivity to changes in pH. […] From a detailed analysis of FIG. 13, four correlations were observed. Fluorescence properties of CA-Cys were invariable from high basicity to a pH of 4.84, from which the excitation λmax began to red-shift from 350 nm, emission λmax began to red-shift from 418 nm, maximum fluorescence intensity began to decrease, and quantum yield began to decrease. As acidity was increased, all four trends continued until pH 2.44, from which the excitation λmax plateaued at 365 nm, emission plateaued at 445 nm, and fluorescence intensity and quantum yield both experienced a short local plateau. Similarly, Stokes shift increased from 67 nm to 80 nm in high acidity. Lastly, absorbance λmax shifted similarly to that of the maximum excitation, while absorbance intensities remained relatively constant. […] All of these patterns were reminiscent of a pH-dependent equilibrium, thus the predominant mechanism of intensity quenching and bathochromic shifts was hypothesized to be attributed to changes in protolytic equilibria. The noticeably linear quenching of intensities past pH 1.63 is discussed with respect to lifetime analysis herein below.
There is a predictable, linear increase in intensity from pH 3 to 4.5. Furthermore, emission collected at a fixed 445 nm is shown in FIG. 15 to be an isobestic point where intensities are independent of pH (up to pH 1), which should greatly improve the functionality of CA-Cys as a pH sensor. In other words, utilizing 445 nm as a dual-wavelength reference point allows for background subtraction and normalization with respect to absorbance or concentration. […] Furthermore, I418 nm/I445 nm increases linearly in the region of pH 3 to 4.5 for accurate determination of pH within this region, plotted and fitted with an R^2 value of 0.982. To sum up, I418 nm/I445 nm values near 1.6 indicate pH above 4.5, values below 0.7 indicate highly acidic environments below pH 3, while any intermediate I418 nm/I445 nm values can determine the exact pH with good accuracy. It is important to note that CA-Cys fluorescence is in accordance with Kasha's rule, i.e. fluorescence occurs from the lowest excited state, S1→S0, thus the emission λmax is independent of the excitation wavelength, and a fluorescence excitation scan at a fixed emission of 418 nm or 445 nm would provide the maximum fluorescence intensity for that emission wavelength. Also of importance is the reliable range of the isobestic point, which is broken at high acidities (noticeably below pH 1) due to dynamic quenching effects.

[2] = Photostability under continuous excitation for 3 hours; assay type: physicochemical
Protocol: (§2) Fluorescence spectra were recorded by a Horiba FluoroMax-4 spectrofluorometer. All samples were measured at a concentration corresponding to an optical density of 0.1 in water and a slit size of 1 nm by 1 nm unless specified. Quantum yields were also determined on same spectrofluorometer by using a Quantum-φ integration sphere at samples' maximum excitation wavelength and at an increment of 0.3 nm. Photostability studies were done by continuously exciting samples at their maximum excitation wavelength and monitoring at the maximum emission wavelength.
(§3) Fluorescence spectra were recorded on a Horiba FluoroMax-4 spectrofluorometer (Horiba Scientific, Edison N.J.). All polymer and samples were characterized at a concentration of 2 wt % in 1,4-dioxane and a slit size of 1 nm by 1 nm unless otherwise specified. The fluorescence properties of small molecule dyes were also measure in 2 wt % DI water solutions at same conditions as polymer solutions. BPLPs were also degraded in 1M K2CO3 solution at 37° C. for 24 hours and then neutralized with 1N HCl solution to pH7. The resulting degradation solutions were subject to further PL characterizations. Quantum yields were also determined on the same spectrofluorometer by using a Quantum-φ integration sphere (Horiba Scientific, Edison N.J.) at the same concentration and slit size with the blank solvent as the reference. Photostability of small molecules and polymers were determined by monitoring the emission intensity decay at their max. Excitation and emission wavelengths over 3 hours of continuous lumination in the spectrofluorometer.
Photostability of CFDs was characterized thereafter, since traditional organic dyes suffer from photobleaching. Various CFDs were tested under their maximum excitation and emission wavelengths for 3 hours, and the photoluminescence was normalized to the initial intensity.

[3] = Fluorescence spectra, absorbance and quantum yield (spectrofluorometer, integration sphere); assay type: physicochemical; conditions: for Shifting (emission shifting with excitation wavelength): CFD dyes; for Φ (quantum yield) / λem (maximum emission wavelength) / λex (maximum excitation wavelength) / ϵ (extinction coefficiency): Table III; for Max. Em. Wavelength / Max. Ex. Wavelength / Quantum Yield: representative CFDs, Table I
Protocol: Fluorescence spectra were recorded by a Horiba FluoroMax-4 spectrofluorometer. All polymer and small molecule samples were measured at a concentration of 2% w/w in 1,4-dioxane or DI water and a slit size of 1 nm by 1 nm unless otherwise specified. Quantum yields were also determined on the same spectrofluorometer by using a Quantum-φ integration sphere at the same concentration and slit size with the blank solvent as the reference. ^1H-NMR, ^13C-NMR were performed on a JNM ECS 300 spectrometer using DMSO-d6 or D2O as solvents. Attenuated total reflection Fourier transform infrared (ATR-FTIR) spectra were collected with a Bruker V70 spectrometer using BPLP films. A Shimadzu HPLC-MS system with a Phenomenex Kinetex 2.6u XB-C18 100 mm×2.9 mm column, a SPD M20A PDA detector and a RF-20AXS fluorescence detector (Ex. 360 nm and Em. 430 nm) was used to characterize the structures of fluorophores as well. The mobile phase was a gradient of DI water and acetonitrile with 0-6 min 2% acetonitrile, 6-12 min 2%-30% acetonitrile, and 12-15 min 2% acetonitrile. The flow rate was 0.15 ml/min. Electrospray ionization mass spectroscopy (ESI-MS) was performed with a positive voltage of 4.5 kV and negative mode voltage −4.0 kV and a CDL temperature of 200° C. The analysis of the degradation products of BPLPs were conducted by immersing BPLPs in 1M K2CO3 solution at 37° C. for 24 hours. After degradation, the solutions were neutralized by 1N HCl solution to pH 7 and characterized by HPLC-MS as described above.
as §2, §3, §1

[4] = Halide fluorescence quenching (Stern-Volmer); assay type: physicochemical; conditions: compared with CA-Cysteine
Protocol: as §1
When a fluorophore of [F] absorbs light energy, excitation raises a sub-population of [F] to the excited state, [F*], which then rapidly lose energy along radiative relaxation (kr) or non-radiative relaxation (knr) according to equation 7. If a quencher forms a complex with the excited fluorophore, an extra non-radiative component, kq, is added to equation 7 to account for the additional relaxation pathway that is a function of quencher concentration and its association constant.
[formula] Thus the quenching of fluorescence can be quantitatively analyzed by comparing the affected lifetimes. The Stern-Volmer (SV) relationship is used to determine kq, the bimolecular quenching rate constant for the diffusion coefficients of the fluorophore and quencher, by deriving a plot of τ0/τ versus [Q]:
[formula] Thus the linear slope of the SV plot, KSV, measures the efficiency of the quencher. Since sulfuric acid was used to study proton-induced quenching, the pH value was a better indicator of [H^+] due to incomplete dissociation of sulfuric acid at high concentrations. In the case of multiple quenchers, as will be discussed in this paper, equation 7 must include additional kq terms that result in modified form of equation 12 below:
[formula] If the two quenchers are act independently, the quencher of known quenching rate and concentration can be combined into the Y-intercept term in order to determine the quenching rate of the second, unknown quencher. […]
To translate halide quenching into quantitative sensing applications, a modified Stern-Volmer equation (Equation 14) was used to linearize the effects of two quenchers, protons and the halide being studied, on the fluorescence of CA-Cysteine. […]
Since the measured sample fluorescence is quenched by both protons and halides, the unquenched fluorescence, Io, was defined as the fluorescence of the neutral state CA-Cysteine in the absence of additional proton or halide quenchers. As mentioned above, the effects of protolytic equilibria stabilize around pH 2.2, where CA-Cysteine undergoes 99% conversion from the dianion state and is marked by constant fluorescence intensities (FIG. 13). […] Thus we chose the fluorescence intensity at pH 2.2 (in the absence of halides) as the unquenched reference signal, Io. IH,Cl in equation 23 is the sample fluorescence at the pH and halide concentration indicated. […]

[5] = commercial halide sensors; cited from earlier work

| SMILES | pH sensitivity [1] | photobleaching relative to Fluorescein and Rhodamine B ([2]; 3 hours continuous excitation) | Shifting (emission shifting with excitation wavelength) [3] | Φ (quantum yield) [3] [%] | λem (maximum emission wavelength) [3] [nm] | λex (maximum excitation wavelength) [3] [nm] | ϵ (extinction coefficiency) [3] [M⁻¹ cm⁻¹] | Max. Em. Wavelength [3] [nm] | Max. Ex. Wavelength [3] [nm] | Quantum Yield [3] [%] | photostability ([2]; FIG. 19) | halide sensitivity [4] | pH dependence of halide quenching [5] |
| --- | --- | --- | --- | --- | --- | --- | --- | --- | --- | --- | --- | --- | --- |
| CCCN1C(=O)C=C(C(=O)O)CC1=O [CA-Propylamine] | PH insensitive | less stable | Yes | 24.6 | 424 | 359 | 6.6 | 422 | 359 | 22.1 | – | – | – |
| O=C(O)c1cc2n(c(=O)c1)CCS2 [CA-Cysteamine] | – | – | No | 79.3 | 445 | 365 | 3880 | 445 | 365 | 79.3 | strong photostability | increase sensitivity of all halides across all pH | – |
| CCOC(=O)C[n+]1cccc2cc(OC)ccc21.[Br-] [MQAE] | – | – | – | – | – | – | – | – | – | – | – | – | quenched by halides independent of pH |
| CC[n+]1cccc2cc(OC)ccc21.[I-] [MEQ] | – | – | – | – | – | – | – | – | – | – | – | – | quenched by halides independent of pH |
| COc1ccc2c(ccc[n+]2CCCS(=O)(=O)[O-])c1 [SPQ] | – | – | – | – | – | – | – | – | – | – | – | – | quenched by halides independent of pH |
